Two molecules from PMC12362587, “Untargeted Diversity-Oriented Synthesis for the Discovery of New Antitumor Agents: An Integrated Approach of Inverse Virtual Screening, Bioinformatics, and Omics for Target Deconvolution” (Journal of Medicinal Chemistry, 2025) can be followed below.

The target in series [1] is T1, protein-tyrosine kinase 6 (BRK) (Homo sapiens, UniProt Q13882).
T1 construct: purchased BPS Bioscience
In words: BRK kinase assay (BPS Bioscience). It is filed as biochemical. The settings on record: top concentration 30 μM, read-out: EC50 or IC50, protein-tyrosine kinase 6. As to the method:
The assay was performed in a volume of 50 μL in a 96-well white plate. […] For activity measurement, the kinase (final concentration, 10 ng per reaction), PTK (Poly-Glu, Tyr 4:1; BRK substrate), ATP (final concentration, 500 μM) and compounds were incubated for 45 min at 30 °C. The compounds were added at different concentrations in the reaction buffer, starting from a final concentration of 30 μM. Buffer with the same amount of DMSO (1%) was used as a negative control. After the incubation time, ADP-Glo Kinase detection reagent was added for 45 min at room temperature. The generated luminescent signal was read in end point mode using a PerkinElmer AlphaScreen multimodal plate reader (PerkinElmer, Waltham, MA, USA). Experiments were performed in triplicate. IC50 values were calculated with GraphPad Prism 8.0 software by nonlinear dose–response inhibition regression.

Another series concerns MCF7. As to the kind of experiment: MTT cell viability assay. It is filed as cell-based. Particulars: Homo sapiens, 24 h, compounds 0.01–40 μM, read-out: In Vitro Cytotoxicity, EC50 ± SD, MCF7. An excerpt: (§1) Initially, we phenotypically screened the synthesized compounds over a panel of tumor cell lines composed of HEPG2, A375, SHSY5Y, MCF7, and A549 derived from liver tumor, melanoma, neuroblastoma, breast cancer, and lung adenocarcinoma, respectively. We also considered the HaCaT cell line, coming from keratinocytes, as a healthy control line. As reference, cytotoxic chemotherapeutic agent 5-fluorouracil (5-FU) has been used. The results obtained performing the MTT (3-(4,5-dimethylthiazolyl-2)-2,5-diphenyltetrazolium bromide) assay are summarized in Table .
(§2) The human neuroblastoma SHSY5Y, melanoma A375, human breast cancer MCF7, nonsmall lung cancer A549, and human epidermal keratinocyte HaCaT cell lines were obtained from ATCC and were grown in Dulbecco’s Modified Eagle Medium (DMEM) supplemented with 10% (v/v) FBS, 2 mM L-glutamine, 100 U/mL penicillin, and 0.1 mg/mL streptomycin.
(§3) Cell viability was established by measuring mitochondrial metabolic activity with MTT. In brief, HEPG2 (1 × 10^4 cells/well), A375 (2 × 10^3 cells/well), HaCaT (3 × 10^3 cells/well), A549 (3 × 10^3 cells/well), SHSY5Y (2 × 10^4 cells/well), and MCF 7 (5 × 10^3 cells/well) were plated into 96-well plates for 24 h, then the compounds (0.01–40 μM) were added. After 24h, cells were replaced with a fresh medium containing 0.5 mg/mL MTT. Cells were incubated 1–3 h at 37 °C, then the medium was discarded, and formazan blue crystals in the cells were dissolved in 100 μL per well of a solution containing isopropanol/HCl 0.1 M. The absorbance was measured at 570 nm using a microplate reader (Multiskan Go, Thermo Scientific, Waltham, MA, USA). Cell viability was expressed as a percentage relative to the untreated cells cultured in medium with 0.1% DMSO and set to 100%, whereas 10% DMSO was used as positive control and set to 0% of viability. The EC50 values were calculated using GraphPad Prism 8.0 software by nonlinear regression of dose–response inhibition.

The subject of the next series is A549. As to the kind of experiment: MTT cell viability assay. It is filed as cell-based. The settings on record: Homo sapiens, 24 h, compounds 0.01–40 μM, read-out: In Vitro Cytotoxicity, EC50 ± SD, A549.
Excerpt: as §1, §2, §3

The next series has as its system SHSY5Y. As to the kind of experiment: MTT cell viability assay. Particulars: Homo sapiens, SH-SY5Y, 24 h, compounds 0.01–40 μM, read-out: In Vitro Cytotoxicity, EC50 ± SD, SHSY5Y. It is filed as cell-based.
Excerpt: as §1, §2, §3

In the next series the test system is A375. As to the kind of experiment: MTT cell viability assay. The settings on record: Homo sapiens, A-375, 24 h, compounds 0.01–40 μM, read-out: In Vitro Cytotoxicity, EC50 ± SD, A375. It is filed as cell-based.
Excerpt: as §1, §2, §3

For series [2], the target named is T2, PPARγ-Ligand Binding Domain (human recombinant) (Homo sapiens, UniProt P37231).
T2 construct: purchased Cayman
As to the kind of experiment: PPARγ-LBD Ligand Screening Assay Kit (Cayman). Particulars: PPARγ-LBD probe displacement, top concentration 30 μM; read-out: EC50 or IC50, peroxisome proliferator-activated receptor gamma. Here is the method:
The assay was performed in a volume of 50 μL in a 96-well plate. In the PPARγ-Ligand Binding Domain screening assay (Cayman, USA), a ligand of Peroxisome proliferator-activated receptor gamma (PPARγ) is conjugated to fluorescein and is used as a displacement probe. To evaluate the binding ability to the target, PPARγ-Ligand Binding Domain (human recombinant), PPARγ Probe – Green and the compounds were incubated in the dark for 1 h at room temperature. The compounds were added at different concentrations in the reaction buffer, starting from a final concentration of 30 μM. Buffer with the same amount of DMSO (1%) was used as a negative control. The fluorescence signals (excitation/emission, 490 nm/520 nm) were read using a PerkinElmer EnSpire multimode plate reader (PerkinElmer, Waltham, MA, USA). The experiments were performed in triplicate. The IC50 values were calculated using GraphPad Prism 8.0 software by nonlinear regression of dose–response inhibition.

A short description of a further series: MTT cell viability assay. It is filed as cell-based, human. The settings on record: human, HaCaT keratinocyte cells (healthy control line), 24 h, compounds 0.01–40 μM, healthy control line, read-out: In Vitro Cytotoxicity, EC50 ± SD, HaCaT.
Excerpt: as §1, §2, §3

Series [3] concerns the target T3, isocitrate dehydrogenase (IDH1 R132H) (Homo sapiens, UniProt O75874, R132H).
T3 construct: purchased BPS Bioscience
As to the kind of experiment: IDH1 enzyme assay (R132H; BPS Bioscience). It is filed as biochemical. Particulars: top concentration 30 μM. Here is the method:
The assay was performed in a volume of 100 μL in a 96-well black plate. The IDH1 enzyme assay (R132H; BPS Bioscience, USA) was designed to measure IDH1 enzyme activity by measuring NADPH consumption. For activity measurement, the enzyme (final concentration, 2.5 ng per reaction), α-ketoglutarate (IDH1 substrate; final concentration, 4 mM), NADPH (final concentration, 500 μM), and compounds were incubated for 1 h at room temperature. The compounds were added at different concentrations in the reaction buffer, starting from a final concentration of 30 μM. Buffer with the same amount of DMSO (1%) was used as a negative control. After the incubation time, NADPH detection reagent was added for 5 min at room temperature. The fluorescence signals (excitation/emission, 544 nm/600 nm) were read using a PerkinElmer EnSpire multimode plate reader (PerkinElmer, Waltham, MA, USA). The experiments were performed in triplicate. The IC50 values were calculated using GraphPad Prism 8.0 software by nonlinear regression of dose–response inhibition.

Molecules are shown by their SMILES.

T1 sequence (Q13882 whole entry): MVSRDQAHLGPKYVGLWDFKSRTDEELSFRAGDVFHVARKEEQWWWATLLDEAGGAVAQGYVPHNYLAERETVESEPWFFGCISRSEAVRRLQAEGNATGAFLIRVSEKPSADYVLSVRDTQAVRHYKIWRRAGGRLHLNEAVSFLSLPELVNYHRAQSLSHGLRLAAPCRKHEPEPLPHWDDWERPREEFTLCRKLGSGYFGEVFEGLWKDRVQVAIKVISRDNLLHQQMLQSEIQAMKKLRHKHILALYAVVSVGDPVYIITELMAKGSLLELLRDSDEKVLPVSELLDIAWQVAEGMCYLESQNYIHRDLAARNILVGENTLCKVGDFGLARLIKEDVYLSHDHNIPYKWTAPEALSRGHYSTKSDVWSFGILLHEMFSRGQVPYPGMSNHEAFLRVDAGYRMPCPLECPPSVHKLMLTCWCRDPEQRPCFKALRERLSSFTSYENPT
T2 sequence (P37231 238-503 limits assumed): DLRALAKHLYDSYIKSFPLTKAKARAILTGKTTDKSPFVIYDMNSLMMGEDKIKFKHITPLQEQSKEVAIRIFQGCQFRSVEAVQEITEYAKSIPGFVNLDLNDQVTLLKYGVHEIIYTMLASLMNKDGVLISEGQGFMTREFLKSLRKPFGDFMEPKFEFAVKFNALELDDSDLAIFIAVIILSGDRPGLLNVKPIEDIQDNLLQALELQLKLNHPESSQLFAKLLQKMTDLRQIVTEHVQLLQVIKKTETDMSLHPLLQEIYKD
T3 sequence (O75874 whole entry R132H): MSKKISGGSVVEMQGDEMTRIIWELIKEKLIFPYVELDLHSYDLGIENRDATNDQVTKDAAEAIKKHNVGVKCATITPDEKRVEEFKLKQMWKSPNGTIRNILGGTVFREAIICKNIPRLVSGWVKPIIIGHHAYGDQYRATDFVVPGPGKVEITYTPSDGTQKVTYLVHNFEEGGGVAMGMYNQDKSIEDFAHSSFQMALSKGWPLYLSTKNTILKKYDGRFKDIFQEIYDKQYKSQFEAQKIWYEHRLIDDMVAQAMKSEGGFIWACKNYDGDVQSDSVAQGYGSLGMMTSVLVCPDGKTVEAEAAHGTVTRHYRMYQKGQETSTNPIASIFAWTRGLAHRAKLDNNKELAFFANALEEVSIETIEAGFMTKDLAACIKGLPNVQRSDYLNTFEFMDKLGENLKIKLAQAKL

For `CC(C)C[C@H]1C(=O)N(Cc2ccc(C(F)(F)F)cc2)c2ccccc2C(=O)N1Cc1ccc(C(F)(F)F)cc1` [Compound 31, (S)-3-Isobutyl-1,4-bis(4-(trifluoromethyl)benzyl)-3,4-dihydro-1H-benzo[e][1,4]diazepine-2,5-dione], the IC50 is 19 ± 3.04 µM in series [1]; over 30 µM in series [2]; 14.9 ± 2.12 µM in series [3] (read-out: EC50 or IC50, isocitrate dehydrogenase). Further, the EC50 in the series on MCF7 is 17.3 ± 2.38 µM; in the series with A549, over 40 µM; with SHSY5Y, over 40 µM; in the series with A375 it was 0.65 ± 0.4 µM. The EC50 at 24 h in “MTT cell viability assay” is over 40 µM.
On to `CC(C)C[C@@H](C(=O)OCc1ccccc1)N1Cc2ccccc2NC1=O` [Compound 63, Benzyl (S)-4-Methyl-2-(2-oxo-1,4-dihydroquinazolin-3(2H)-yl)pentanoate], for which the IC50 is 29.2 ± 4.53 µM in series [1] and over 30 µM in series [2]. Further, the EC50 with MCF7 worked out at 27.9 ± 2.44 µM; in the series on A549 it was 36.4 ± 3.15 µM; with SHSY5Y it was 23.2 ± 4.17 µM; in the series on A375, 2.29 ± 1.12 µM. Besides, the EC50 at 24 h in “MTT cell viability assay” was found to be 21.4 ± 0.78 µM. The “EC50 or IC50, isocitrate dehydrogenase” value in series [3] was “not soluble”.
